# Test results: US10259810B2, “N-sulfonylated pyrazolo[3,4-b]pyridin-6-carboxamides and method of use” (AbbVie S.à.r.l., priority 2015, dated 2019)
# Columns and labels:
# ΔF508-CFTR [1] = molecular target: T1, ΔF508-CFTR (Homo sapiens, UniProt P13569, DEL508-508); test: CFTR cell surface levels using HRP-tagged ΔF508-CFTR expressing CFBE cells, in the presence of a co-corrector; format: cell-based
# T1 construct: host or cells: CFBE41o-, doxycycline-inducible
# Method in brief: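 Chemiluminescent read-out of surface HRP (15 min, dark) after PBS washes. Activity is normalized as 100×(sample−DMSO)/(3 μM co-corrector alone−DMSO).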
# ΔF508-CFTR [2] = molecular target: T1, ΔF508-CFTR; test: CFTR cell surface levels using HRP-tagged ΔF508-CFTR expressing CFBE cells, intrinsic corrector capacity; format: cell-based; set-up: % Activation: concentration or dose not given beside the values
# Method in brief: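 Read-out: chemiluminescent HRP activity of ECL4-HRP-tagged ΔF508-CFTR at the cell surface, 15 min substrate in dark. Normalized as 100×(sample−DMSO)/(positive control−DMSO).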
# [3] = HRP-tagged ΔF508-CFTR CFBE cells, in the presence of 3 μM co-corrector
# [4] = HRP-tagged ΔF508-CFTR CFBE cells, in the presence of 3 μM co-corrector, read-out: EC50
# [5] = HRP-tagged ΔF508-CFTR expressing CFBE41o- cells, compound alone (intrinsic corrector capacity), 20 hours at 33° C.
# [6] = HRP-tagged ΔF508-CFTR expressing CFBE41o- cells, compound alone (intrinsic corrector capacity), 20 hours at 33° C., read-out: EC50
# T1 sequence (P13569 with tags, fused parts or gaps DEL508-508): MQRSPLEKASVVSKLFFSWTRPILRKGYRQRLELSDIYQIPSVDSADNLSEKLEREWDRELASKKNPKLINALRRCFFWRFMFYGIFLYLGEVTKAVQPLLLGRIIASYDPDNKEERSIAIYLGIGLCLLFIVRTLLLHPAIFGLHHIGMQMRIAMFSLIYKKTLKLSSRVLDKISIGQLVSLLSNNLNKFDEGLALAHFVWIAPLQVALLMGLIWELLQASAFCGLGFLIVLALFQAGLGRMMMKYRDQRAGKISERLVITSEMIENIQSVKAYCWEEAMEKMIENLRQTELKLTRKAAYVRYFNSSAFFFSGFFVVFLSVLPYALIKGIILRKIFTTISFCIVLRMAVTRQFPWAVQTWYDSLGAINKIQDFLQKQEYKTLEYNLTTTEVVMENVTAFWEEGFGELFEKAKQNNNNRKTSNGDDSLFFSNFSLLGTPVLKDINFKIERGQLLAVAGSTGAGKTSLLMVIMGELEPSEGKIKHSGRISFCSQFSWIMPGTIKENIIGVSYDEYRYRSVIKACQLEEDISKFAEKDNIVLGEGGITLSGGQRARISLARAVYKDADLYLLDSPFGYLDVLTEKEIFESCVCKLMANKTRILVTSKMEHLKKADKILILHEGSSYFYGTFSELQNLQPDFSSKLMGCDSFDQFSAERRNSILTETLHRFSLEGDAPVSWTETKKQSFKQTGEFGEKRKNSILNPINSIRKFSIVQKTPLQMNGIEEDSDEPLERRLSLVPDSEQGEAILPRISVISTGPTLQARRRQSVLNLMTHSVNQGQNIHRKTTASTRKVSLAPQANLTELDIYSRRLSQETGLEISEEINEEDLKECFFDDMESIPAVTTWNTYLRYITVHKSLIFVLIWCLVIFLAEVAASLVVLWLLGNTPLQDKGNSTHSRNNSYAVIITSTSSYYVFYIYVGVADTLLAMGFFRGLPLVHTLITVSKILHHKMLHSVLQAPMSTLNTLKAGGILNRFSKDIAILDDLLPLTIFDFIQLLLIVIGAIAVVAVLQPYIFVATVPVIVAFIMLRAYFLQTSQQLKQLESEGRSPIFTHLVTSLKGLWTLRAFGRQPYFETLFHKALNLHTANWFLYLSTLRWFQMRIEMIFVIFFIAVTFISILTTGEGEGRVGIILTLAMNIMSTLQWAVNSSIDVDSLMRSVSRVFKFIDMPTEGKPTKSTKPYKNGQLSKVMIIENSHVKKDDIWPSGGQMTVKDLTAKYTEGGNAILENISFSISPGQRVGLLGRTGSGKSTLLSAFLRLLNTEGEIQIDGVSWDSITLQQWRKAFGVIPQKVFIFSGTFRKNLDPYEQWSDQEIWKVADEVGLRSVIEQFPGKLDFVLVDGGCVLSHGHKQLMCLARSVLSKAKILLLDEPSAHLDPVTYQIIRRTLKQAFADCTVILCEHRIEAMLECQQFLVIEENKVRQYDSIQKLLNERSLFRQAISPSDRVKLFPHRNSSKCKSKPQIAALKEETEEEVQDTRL
compound,measurement,setting,value
"CN(C)S(=O)(=O)NC(=O)c1cc(-c2ccc(N3CCN(C4CC4)CC3)nc2)c2c(C3CCC3)nn(C3CCCCC3)c2n1 [Compound 536, 3-cyclobutyl-1-cyclohexyl-4-[6-(4-cyclopropylpiperazin-1-yl)pyridin-3-yl]-N-(dimethylsulfamoyl)-1H-pyrazolo[3,4-b]pyridine-6-carboxamide]",% Activation,ΔF508-CFTR [1]; [3],341.15%
same,EC50,ΔF508-CFTR [1]; [4],0.28 µM
same,% Activation,ΔF508-CFTR [2]; [5],125.1%
same,EC50,ΔF508-CFTR [2]; [6],0.225 µM
"COCC1CCN(c2cc(C(=O)NS(C)(=O)=O)nc3c2c(C2CCC2)nn3-c2ccnc(C)c2)CC1 [Compound 430, 3-cyclobutyl-N-(methanesulfonyl)-4-[4-(methoxymethyl)piperidin-1-yl]-1-(2-methylpyridin-4-yl)-1H-pyrazolo[3,4-b]pyridine-6-carboxamide]",% Activation,ΔF508-CFTR [1]; [3],383.7%
same,EC50,ΔF508-CFTR [1]; [4],0.0899 µM
same,% Activation,ΔF508-CFTR [2]; [5],170.05%
same,EC50,ΔF508-CFTR [2]; [6],0.231 µM
"COCC1CCN(c2cc(C(=O)NS(=O)(=O)CCCO)nc3c2c(C2CCC2)nn3-c2ccc(F)cc2)CC1 [Compound 672, 3-cyclobutyl-1-(4-fluorophenyl)-N-(3-hydroxypropane-1-sulfonyl)-4-[4-(methoxymethyl)piperidin-1-yl]-1H-pyrazolo[3,4-b]pyridine-6-carboxamide]",% Activation,ΔF508-CFTR [1]; [3],422.4%
same,EC50,ΔF508-CFTR [1]; [4],0.127 µM
same,% Activation,ΔF508-CFTR [2]; [5],362.9%
same,EC50,ΔF508-CFTR [2]; [6],0.331 µM
"CN(C)S(=O)(=O)NC(=O)c1cc(-c2ccc(CN3CCOCC3)cc2)c2c(C3CCC3)nn(C3CCCCC3)c2n1 [Compound 475, 3-cyclobutyl-1-cyclohexyl-N-(dimethylsulfamoyl)-4-{4-[(morpholin-4-yl)methyl]phenyl}-1H-pyrazolo[3,4-b]pyridine-6-carboxamide]",% Activation,ΔF508-CFTR [1]; [3],289.95%
same,EC50,ΔF508-CFTR [1]; [4],0.112 µM
same,% Activation,ΔF508-CFTR [2]; [5],140.1%
same,EC50,ΔF508-CFTR [2]; [6],0.179 µM
"CC(C)c1nn(C2CCCCC2)c2nc(C(=O)NS(C)(=O)=O)cc(-c3cnc(N(C)C)nc3)c12 [Compound 9, 1-cyclohexyl-4-[2-(dimethylamino)pyrimidin-5-yl]-N-(methanesulfonyl)-3-(propan-2-yl)-1H-pyrazolo[3,4-b]pyridine-6-carboxamide]",% Activation,ΔF508-CFTR [1]; [3],335%
same,EC50,ΔF508-CFTR [1]; [4],0.505 µM
same,% Activation,ΔF508-CFTR [2]; [5],143.05%
same,EC50,ΔF508-CFTR [2]; [6],0.786 µM
"CCS(=O)(=O)NC(=O)c1cc(-c2ccc(N3CCOCC3)cc2)c2c(C)nn(-c3cccc(OC)c3)c2n1 [Compound 73, N-(ethanesulfonyl)-1-(3-methoxyphenyl)-3-methyl-4-[4-(morpholin-4-yl)phenyl]-1H-pyrazolo[3,4-b]pyridine-6-carboxamide]",% Activation,ΔF508-CFTR [1]; [3],423.35%
same,EC50,ΔF508-CFTR [1]; [4],0.49 µM
same,% Activation,ΔF508-CFTR [2]; [5],254.1%
same,EC50,ΔF508-CFTR [2]; [6],0.657 µM
"CCS(=O)(=O)NC(=O)c1cc(-c2ccc(N3CCOCC3)cc2)c2c(C3(C)CCC3)nn(-c3ccccc3)c2n1 [Compound 138, N-(ethanesulfonyl)-3-(1-methylcyclobutyl)-4-[4-(morpholin-4-yl)phenyl]-1-phenyl-1H-pyrazolo[3,4-b]pyridine-6-carboxamide]",% Activation,ΔF508-CFTR [1]; [3],433.83%
same,EC50,ΔF508-CFTR [1]; [4],0.236 µM
same,% Activation,ΔF508-CFTR [2]; [5],252.9%
same,EC50,ΔF508-CFTR [2]; [6],0.334 µM
"CS(=O)(=O)NC(=O)c1cc(CN2CCOCC2)c2c(C3CCC3)nn(-c3ccc(F)cc3)c2n1 [Compound 519, 3-cyclobutyl-1-(4-fluorophenyl)-N-(methanesulfonyl)-4-[(morpholin-4-yl)methyl]-1H-pyrazolo[3,4-b]pyridine-6-carboxamide]",% Activation,ΔF508-CFTR [1]; [3],252.3%
same,EC50,ΔF508-CFTR [1]; [4],1.02 µM
same,% Activation,ΔF508-CFTR [2]; [5],114.4%
same,EC50,ΔF508-CFTR [2]; [6],3.33 µM
"COCC1CCN(c2cc(C(=O)NS(=O)(=O)N3CCC(N4CCCC4)CC3)nc3c2c(C2CCC2)nn3-c2ccccc2)CC1 [Compound 388, 3-cyclobutyl-4-[4-(methoxymethyl)piperidin-1-yl]-1-phenyl-N-[4-(pyrrolidin-1-yl)piperidine-1-sulfonyl]-1H-pyrazolo[3,4-b]pyridine-6-carboxamide]",EC50,ΔF508-CFTR [1],0.196 µM
same,% Activation,ΔF508-CFTR [1]; [3],364.5%
same,EC50,ΔF508-CFTR [2],0.218 µM
same,% Activation,ΔF508-CFTR [2]; [5],192.8%
"COC1CCN(c2cc(C(=O)NS(=O)(=O)C3CCS(=O)(=O)C3)nc3c2c(C2CCC2)nn3-c2ccccc2)CC1 (stereo not drawn) [Compound 143, 3-cyclobutyl-N-(1,1-dioxo-1λ^6-thiolane-3-sulfonyl)-4-(4-methoxypiperidin-1-yl)-1-phenyl-1H-pyrazolo[3,4-b]pyridine-6-carboxamide]",% Activation,ΔF508-CFTR [1]; [3],217.8%
same,EC50,ΔF508-CFTR [1]; [4],0.834 µM
same,% Activation,ΔF508-CFTR [2]; [5],107.15%
same,EC50,ΔF508-CFTR [2]; [6],1.11 µM
COCC1CCN(c2cc(C(=O)NS(=O)(=O)CCl)nc3c2c(C2CCC2)nn3-c2ccccc2)CC1 [AC07],% Activation,ΔF508-CFTR [1]; [3],466.9%
same,EC50,ΔF508-CFTR [1]; [4],0.0766 µM
same,% Activation,ΔF508-CFTR [2]; [5],268.5%
same,EC50,ΔF508-CFTR [2]; [6],0.139 µM
"COCCS(=O)(=O)NC(=O)c1cc(N2CCN(C(C)C)CC2)c2c(C3CCC3)nn(-c3ccccc3)c2n1 [Compound 271, 3-cyclobutyl-N-(2-methoxyethanesulfonyl)-1-phenyl-4-[4-(propan-2-yl)piperazin-1-yl]-1H-pyrazolo[3,4-b]pyridine-6-carboxamide]",% Activation,ΔF508-CFTR [1]; [3],260.47%
same,EC50,ΔF508-CFTR [1]; [4],1.02 µM
same,% Activation,ΔF508-CFTR [2]; [5],63.905%
same,EC50,ΔF508-CFTR [2]; [6],1.95 µM
"CC(C)c1nn(-c2cccc(N(C)C)c2)c2nc(C(=O)NS(=O)(=O)CCCN=[N+]=[N-])cc(-c3ccc(N=[N+]=[N-])cc3)c12 [Compound 327, 4-(4-azidophenyl)-N-(3-azidopropane-1-sulfonyl)-1-[3-(dimethylamino)phenyl]-3-(propan-2-yl)-1H-pyrazolo[3,4-b]pyridine-6-carboxamide]",% Activation,ΔF508-CFTR [1]; [3],433.9%
same,EC50,ΔF508-CFTR [1]; [4],0.0999 µM
same,% Activation,ΔF508-CFTR [2]; [5],239.4%
same,EC50,ΔF508-CFTR [2]; [6],0.145 µM
"CC(C)N1CCN(C2CCN(c3cc(C(=O)NS(=O)(=O)N4CCC4)nc4c3c(C3CCC3)nn4-c3ccc(F)cc3)CC2)CC1 [Compound 651, N-(azetidine-1-sulfonyl)-3-cyclobutyl-1-(4-fluorophenyl)-4-{4-[4-(propan-2-yl)piperazin-1-yl]piperidin-1-yl}-1H-pyrazolo[3,4-b]pyridine-6-carboxamide]",% Activation,ΔF508-CFTR [1]; [3],532.4%
same,EC50,ΔF508-CFTR [1]; [4],0.128 µM
same,% Activation,ΔF508-CFTR [2]; [5],317.85%
same,EC50,ΔF508-CFTR [2]; [6],0.206 µM
"COC1CCN(c2ccc(-c3cc(C(=O)NS(C)(=O)=O)nc4c3c(C(C)C)nn4C3CCCCC3)cn2)C1 (stereo not drawn) [Compound 106, 1-cyclohexyl-N-(methanesulfonyl)-4-[6-(3-methoxypyrrolidin-1-yl)pyridin-3-yl]-3-(propan-2-yl)-1H-pyrazolo[3,4-b]pyridine-6-carboxamide]",% Activation,ΔF508-CFTR [1]; [3],348.1%
same,EC50,ΔF508-CFTR [1]; [4],0.394 µM
same,% Activation,ΔF508-CFTR [2]; [5],162.75%
same,EC50,ΔF508-CFTR [2]; [6],0.526 µM
"O=C(NS(=O)(=O)N1CCCCC1)c1cc(N2CCC(N3CCOCC3)CC2)c2c(C3CCC3)nn(-c3ccc(F)cc3)c2n1 [Compound 568, 3-cyclobutyl-1-(4-fluorophenyl)-4-[4-(morpholin-4-yl)piperidin-1-yl]-N-(piperidine-1-sulfonyl)-1H-pyrazolo[3,4-b]pyridine-6-carboxamide]",% Activation,ΔF508-CFTR [1]; [3],461%
same,EC50,ΔF508-CFTR [1]; [4],0.0463 µM
same,% Activation,ΔF508-CFTR [2]; [5],240.65%
same,EC50,ΔF508-CFTR [2]; [6],0.0775 µM
"CN1CCCN(C(=O)c2cc(N3CCC(CN4CCCC4)CC3)c3c(C4CCC4)nn(-c4ccccc4)c3n2)S1(=O)=O [Compound 660, 2-(3-cyclobutyl-1-phenyl-4-{4-[(pyrrolidin-1-yl)methyl]piperidin-1-yl}-1H-pyrazolo[3,4-b]pyridine-6-carbonyl)-6-methyl-1λ^6,2,6-thiadiazinane-1,1-dione]",% Activation,ΔF508-CFTR [1]; [3],172.1%
same,EC50,ΔF508-CFTR [1]; [4],0.235 µM
same,% Activation,ΔF508-CFTR [2]; [5],34.92%
same,EC50,ΔF508-CFTR [2]; [6],0.932 µM
"CC(C)c1nn(C2CCC(F)(F)CC2)c2nc(C(=O)NS(C)(=O)=O)cc(-c3ccc(N4CCOCC4)cc3)c12 [Compound 38, 1-(4,4-difluorocyclohexyl)-N-(methanesulfonyl)-4-[4-(morpholin-4-yl)phenyl]-3-(propan-2-yl)-1H-pyrazolo[3,4-b]pyridine-6-carboxamide]",% Activation,ΔF508-CFTR [1]; [3],447.7%
same,EC50,ΔF508-CFTR [1]; [4],0.581 µM
same,% Activation,ΔF508-CFTR [2]; [5],182%
same,EC50,ΔF508-CFTR [2]; [6],0.85 µM
"CC(=O)NCCS(=O)(=O)NC(=O)c1cc(N2CCC(N3CCOCC3)CC2)c2c(C3CCC3)nn(-c3ccc(F)cc3)c2n1 [Compound 574, N-(2-acetamidoethanesulfonyl)-3-cyclobutyl-1-(4-fluorophenyl)-4-[4-(morpholin-4-yl)piperidin-1-yl]-1H-pyrazolo[3,4-b]pyridine-6-carboxamide]",% Activation,ΔF508-CFTR [1]; [3],283.3%
same,EC50,ΔF508-CFTR [1]; [4],0.542 µM
same,% Activation,ΔF508-CFTR [2]; [5],129.9%
same,EC50,ΔF508-CFTR [2]; [6],2.76 µM
"O=C(NS(=O)(=O)N1CC(F)(F)C1)c1cc(N2CCC(N3CCOCC3)CC2)c2c(C3CCC3)nn(-c3ccc(F)cc3)c2n1 [Compound 580, 3-cyclobutyl-N-(3,3-difluoroazetidine-1-sulfonyl)-1-(4-fluorophenyl)-4-[4-(morpholin-4-yl)piperidin-1-yl]-1H-pyrazolo[3,4-b]pyridine-6-carboxamide]",% Activation,ΔF508-CFTR [1]; [3],387.45%
same,EC50,ΔF508-CFTR [1]; [4],0.0524 µM
same,% Activation,ΔF508-CFTR [2]; [5],201.52%
same,EC50,ΔF508-CFTR [2]; [6],0.131 µM
"CCS(=O)(=O)NC(=O)c1cc(-c2ccc(N(C)C3CCOCC3)nc2)c2c(C(C)C)nn(-c3cccc(F)c3)c2n1 [Compound 224, N-(ethanesulfonyl)-1-(3-fluorophenyl)-4-{6-[methyl(oxan-4-yl)amino]pyridin-3-yl}-3-(propan-2-yl)-1H-pyrazolo[3,4-b]pyridine-6-carboxamide]",% Activation,ΔF508-CFTR [1]; [3],453.1%
same,EC50,ΔF508-CFTR [1]; [4],0.482 µM
same,% Activation,ΔF508-CFTR [2]; [5],228.8%
same,EC50,ΔF508-CFTR [2]; [6],0.544 µM
